From ChEMBL document CHEMBL2074337, “Predicting P-glycoprotein effects on oral absorption: correlation of transport in Caco-2 with drug pharmacokinetics in wild-type and mdr1a(-/-) mice in vivo” (Pharm Res, 2004)

Each compound was assayed against ATP-dependent translocase ABCB1 (Homo sapiens, UniProt P08183) (assay: TP_TRANSPORTER: transepithelial transport in Caco 2 cell).
Format: functional, cell-based

Chain of ATP-dependent translocase ABCB1 (P08183 whole entry): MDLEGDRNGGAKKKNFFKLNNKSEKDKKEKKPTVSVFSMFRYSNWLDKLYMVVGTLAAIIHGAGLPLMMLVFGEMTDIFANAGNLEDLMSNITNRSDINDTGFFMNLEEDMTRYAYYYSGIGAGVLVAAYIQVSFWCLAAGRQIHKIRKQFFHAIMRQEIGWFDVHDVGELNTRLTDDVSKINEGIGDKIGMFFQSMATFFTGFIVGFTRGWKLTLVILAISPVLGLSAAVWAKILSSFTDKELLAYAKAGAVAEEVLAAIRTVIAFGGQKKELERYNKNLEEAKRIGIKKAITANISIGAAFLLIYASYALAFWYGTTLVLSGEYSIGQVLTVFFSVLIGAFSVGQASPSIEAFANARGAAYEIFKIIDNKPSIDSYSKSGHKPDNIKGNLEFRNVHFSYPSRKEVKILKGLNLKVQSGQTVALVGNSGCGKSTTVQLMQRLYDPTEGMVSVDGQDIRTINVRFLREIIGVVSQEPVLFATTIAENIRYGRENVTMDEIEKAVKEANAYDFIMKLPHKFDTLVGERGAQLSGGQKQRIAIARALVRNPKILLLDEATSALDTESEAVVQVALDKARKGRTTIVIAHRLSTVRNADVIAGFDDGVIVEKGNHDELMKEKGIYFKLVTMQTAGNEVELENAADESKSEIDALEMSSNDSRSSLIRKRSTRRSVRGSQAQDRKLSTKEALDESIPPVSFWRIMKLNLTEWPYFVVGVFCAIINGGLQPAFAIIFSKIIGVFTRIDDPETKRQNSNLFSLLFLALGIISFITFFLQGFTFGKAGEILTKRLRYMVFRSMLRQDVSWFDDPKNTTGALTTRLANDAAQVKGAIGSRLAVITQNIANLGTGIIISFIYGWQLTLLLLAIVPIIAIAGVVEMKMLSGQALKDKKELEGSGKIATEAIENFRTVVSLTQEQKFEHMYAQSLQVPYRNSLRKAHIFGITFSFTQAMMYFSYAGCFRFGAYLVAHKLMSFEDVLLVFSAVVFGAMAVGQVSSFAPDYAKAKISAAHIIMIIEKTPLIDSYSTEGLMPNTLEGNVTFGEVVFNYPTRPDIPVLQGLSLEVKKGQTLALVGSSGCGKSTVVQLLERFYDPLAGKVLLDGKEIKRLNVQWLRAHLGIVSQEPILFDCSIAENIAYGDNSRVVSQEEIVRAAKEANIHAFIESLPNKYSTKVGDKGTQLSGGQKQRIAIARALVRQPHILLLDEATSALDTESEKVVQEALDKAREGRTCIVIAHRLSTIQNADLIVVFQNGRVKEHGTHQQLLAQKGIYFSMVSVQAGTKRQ

Row | SMILES | Activity
1 | CC(C)(C)NC(=O)[C@@H]1C[C@@H]2CCCC[C@@H]2CN1C[C@@H](O)[C@H](Cc1ccccc1)NC(=O)[C@H](CC(N)=O)NC(=O)c1ccc2ccccc2n1 [SAQUINAVIR] | substrate [+]
2 | CC(=O)O[C@H]1C(=O)[C@@]2(C)[C@H]([C@H](OC(=O)c3ccccc3)[C@]3(O)C[C@H](OC(=O)[C@H](O)[C@@H](NC(=O)c4ccccc4)c4ccccc4)C(C)=C1C3(C)C)[C@]1(OC(C)=O)CO[C@@H]1C[C@@H]2O [PACLITAXEL] | substrate [+]
3 | CC[C@@]1(O)C(=O)OCc2c1cc1n(c2=O)Cc2cc3c(CN(C)C)c(O)ccc3nc2-1 [TOPOTECAN] | substrate [+]
4 | C[C@H]1O[C@@H](O[C@H]2[C@@H](O)C[C@H](O[C@H]3[C@@H](O)C[C@H](O[C@H]4CC[C@@]5(C)[C@H](CC[C@@H]6[C@@H]5C[C@@H](O)[C@]5(C)[C@@H](C7=CC(=O)OC7)CC[C@]65O)C4)O[C@@H]3C)O[C@@H]2C)C[C@H](O)[C@@H]1O [DIGOXIN] | substrate [+]
5 | C=CCNc1nc(NCC=C)nc(N2CCC(NCC(c3ccc(F)cc3)c3ccc(F)cc3)CC2)n1 | substrate [+]
6 | C=CC[C@@H]1/C=C(\C)C[C@H](C)C[C@H](OC)[C@H]2O[C@@](O)(C(=O)C(=O)N3CCCC[C@H]3C(=O)O[C@H](/C(C)=C/[C@@H]3CC[C@@H](O)[C@H](OC)C3)[C@H](C)[C@@H](O)CC1=O)[C@H](C)C[C@@H]2OC [TACROLIMUS ANHYDROUS] | substrate [+]
7 | CO[C@H]1/C=C/O[C@@]2(C)Oc3c(C)c(O)c4c(O)c(c(/C=N/N5CCN(C)CC5)c(O)c4c3C2=O)NC(=O)/C(C)=C\C=C\[C@H](C)[C@H](O)[C@@H](C)[C@@H](O)[C@@H](C)[C@H](OC(C)=O)[C@@H]1C [RIFAMPIN] | substrate [+]
8 | NS(=O)(=O)N1CCN(C2CN(CC[C@]3(c4ccc(Cl)c(Cl)c4)CCC(=O)N(CC4CC4)C3)C2)CC1 | substrate [+]
